What all share (assay): NCI-60 cell line screen, 48 h
Assay [1] concerns EKVX.
Assay [2] concerns MDA-MB-435.
Assay [3] deals with A498.
Assay [4] relates to SNB-75.
Assay [5] deals with NCI-H226.
Assay [6] has as its system HL-60.
Assay [7] concerns SK-MEL-28.
In assay [8] the test system is NCI-H460.
Assay [9] concerns HCT-15.
Assay [10] has as its system KM12.
The test system of assay [11] is NCI/ADR-RES.
Assay [12] concerns HCC 2998.
Assay [13] has as its system MCF7.
For assay [14], the system named is NCI-H522.
For assay [15], the system named is SK-OV-3.
The test system of assay [16] is DU-145.
The subject of assay [17] is SN12C.
The test system of assay [18] is SK-MEL-5.
Assay [19] deals with OVCAR-8.

The structures appear in SMILES notation.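 Growth conditions: 96-well plates. Treatment: test compound, 48 hours, 5 concentrations. Analysis: linear interpolation between bracketing concentrations; unreached endpoints set to highest concentration. The concentration for 50% growth inhibition is given as GI50.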 Calls of active or inactive are those of the source. Cut-off read from the data, not from the text of the source: active = GI50 up to about 1.1 µM and inactive = higher. Square brackets hold non-standard residues; d marks the D form. Peptide text beside a SMILES is read from it. * marks the point of attachment. X26 = COC1=CC(=O)N(C(=O)[C@@H](O*)C(C)C)[C@H]1Cc1ccccc1; NMeL = CN[C@@H](CC(C)C)C(=O)O; Hexanoyl = CCCCCC(=O)*

Regarding `COc1ccc(-c2cc(-c3ccccc3)n(C3OCC(OC(C)=O)C(OC(C)=O)C3OC(C)=O)c(=S)c2C#N)cc1` (centres undefined), the GI50 in [1] is > 100 µM (inactive); in assay [2] it was > 100 µM (inactive); in assay [3], 72.9 µM (inactive); in [4], > 100 µM (inactive); in [5] it was 20 µM (inactive); in assay [6], > 100 µM (inactive). Moreover, the GI50 in assay [7] was > 100 µM (inactive); in assay [8], 9.42 µM (inactive); in assay [9], > 100 µM; in assay [10] it was 85.3 µM (inactive); in [11] it was > 100 µM (inactive); in assay [12] it was > 100 µM (inactive). The GI50 is > 100 µM (inactive) in [13]; 66.5 µM (inactive) in assay [14]; 66.1 µM (inactive) in assay [15]; > 100 µM (inactive) in assay [16]; > 100 µM (inactive) in assay [17]; > 100 µM (inactive) in assay [18]. Besides, the GI50 in [19] was > 100 µM (inactive).
With `Cc1ccc2c(c1C)CC1(Cc3c(C)ccc(C)c3C1=O)C2=O` (centres undefined), the GI50 in [1], in assay [2], in [3], in [4], in assay [5] and in assay [6] was > 100 µM (inactive) in each case. Further, the GI50 in [7] is > 100 µM (inactive); in assay [8], > 100 µM (inactive); in [9] it was > 100 µM; in [10], > 100 µM (inactive); in assay [11] it was > 100 µM (inactive); in assay [12], > 100 µM (inactive). Besides, the GI50 in [13], in assay [14], in [15], in [16], in assay [17] and in assay [18] was > 100 µM (inactive) throughout. For the same compound, the GI50 in assay [19] was > 100 µM (inactive).
On to `C=CCOc1ccc(C2(c3ccc(OCC=C)cc3)C(=O)Nc3ccccc32)cc1`, for which the GI50 in assay [1], in assay [2], in [3], in [4], in assay [5] and in assay [6] was > 10 µM (inactive) in each case. Moreover, the GI50 in [7] is > 10 µM (inactive); in assay [8] it was > 10 µM (inactive); in assay [9], > 10 µM; in assay [10], > 10 µM (inactive); in [11], > 10 µM (inactive); in assay [12] it was > 10 µM (inactive). Besides, the GI50 in assay [13] was 8.57 µM (inactive); in [14] it was > 10 µM (inactive); in assay [15], > 10 µM (inactive); in assay [16] it was > 10 µM (inactive); in assay [17], > 10 µM (inactive); in [18] it was > 10 µM (inactive). In assay [19], the GI50 is > 10 µM (inactive).
On to `CCOP(=O)(OCC)C(Nc1cccc(F)c1)c1ccc(N(C)C)cc1` (centres undefined), for which the GI50 is 99.1 µM (inactive) in [1]; > 100 µM (inactive) in [2]; > 100 µM (inactive) in assay [3]; > 100 µM (inactive) in assay [4]; > 100 µM (inactive) in assay [5]; 45.7 µM (inactive) in [6]. Besides, the GI50 was > 100 µM (inactive) in assay [7]; 63 µM (inactive) in assay [8]; 78.2 µM in assay [9]; > 100 µM (inactive) in assay [10]; 81.8 µM (inactive) in assay [11]; 64 µM (inactive) in assay [12]. Also, the GI50 is > 100 µM (inactive) in [13]; 75.5 µM (inactive) in assay [14]; > 100 µM (inactive) in assay [15]; > 100 µM (inactive) in [16]; > 100 µM (inactive) in [17]; 71 µM (inactive) in assay [18]. Further, in assay [19], the GI50 is > 100 µM (inactive).
On to `CCCCn1c(C)c2c(c1C)C(=O)N(CCN1CCN(c3ccccc3Cl)CC1)C2=O`, for which the GI50 is 35.6 µM (inactive) in assay [1]; 32.4 µM (inactive) in [2]; 39 µM (inactive) in [3]; 31.6 µM (inactive) in assay [4]; 36.9 µM (inactive) in assay [5]; 22.1 µM (inactive) in [6]. Also, the GI50 in [8] is 35.5 µM (inactive); in assay [9], 35.6 µM; in assay [10], 31.5 µM (inactive); in assay [11] it was 46.7 µM (inactive); in [12], 30.6 µM (inactive); in assay [13], 32.4 µM (inactive). Also, the GI50 in assay [14] is 25.5 µM (inactive); in assay [15], 21.6 µM (inactive); in [16] it was 36 µM (inactive); in [17] it was 26.7 µM (inactive); in [18] it was 19.9 µM (inactive); in assay [19] it was 44.9 µM (inactive).
As for `CC(C#N)(NO)C(C)(C#N)NO` (centres undefined), the GI50 is > 100 µM (inactive) in assay [1]; > 100 µM (inactive) in [2]; > 100 µM (inactive) in assay [3]; > 100 µM (inactive) in assay [4]; 97.9 µM (inactive) in [5]; > 100 µM (inactive) in assay [6]. The GI50 was > 100 µM (inactive) in assay [7]; > 100 µM (inactive) in assay [8]; > 100 µM in [9]; > 100 µM (inactive) in assay [10]; > 100 µM (inactive) in assay [11]; > 100 µM (inactive) in [12]. The GI50 in assay [13], in [14], in assay [15], in assay [16], in assay [17] and in [18] was > 100 µM (inactive) each time. Also, the GI50 in assay [19] is > 100 µM (inactive).
For `O=C1C(=C(I)I)c2ccccc2-c2ccccc21`, the GI50 is 3 µM (inactive) in [1]; 2.24 µM (inactive) in [2]; 16.6 µM (inactive) in [3]; 2.58 µM (inactive) in [4]; 19.7 µM (inactive) in [5]; 0.998 µM (active) in assay [6]. For the same compound, the GI50 in assay [7] is 2.59 µM (inactive); in assay [8], 14.6 µM (inactive); in [9], 2.47 µM; in assay [10], 12 µM (inactive); in [11], 3.24 µM (inactive); in assay [12] it was 2.51 µM (inactive). Besides, the GI50 is 3.59 µM (inactive) in [13]; 1.04 µM (active) in [14]; 14.8 µM (inactive) in assay [15]; 3.67 µM (inactive) in assay [16]; 2.05 µM (inactive) in assay [17]; 5.37 µM (inactive) in [18]. In assay [19], the GI50 is 2.59 µM (inactive).
As for `Cc1ccnc(Nc2[nH]c(C(=O)c3ccc(Cl)cc3)c(N)c2C(=S)Nc2ccccc2)c1`, the GI50 in assay [1] is 14.5 µM (inactive); in assay [2] it was 15.7 µM (inactive); in assay [3], 19.1 µM (inactive); in [4], 18.1 µM (inactive); in assay [5], 17.7 µM (inactive); in assay [6], 23.8 µM (inactive). For the same compound, the GI50 was 18.6 µM (inactive) in assay [7]; 5.82 µM (inactive) in assay [8]; 16.1 µM in assay [9]; 10 µM (inactive) in assay [10]; 2.57 µM (inactive) in assay [11]; 14.7 µM (inactive) in [12]. In addition, the GI50 in [13] is 9.16 µM (inactive); in assay [14] it was 12.8 µM (inactive); in assay [15], 13.8 µM (inactive); in assay [16] it was 22.1 µM (inactive); in [17], 15.7 µM (inactive); in assay [19], 12.2 µM (inactive).
For the compound `[N-]=[N+]=Nc1c(-c2ccccc2)c(=O)n(-c2ccccc2)c2ccccc12`, the GI50 in [1] was 17.6 µM (inactive); in assay [2], 60.8 µM (inactive); in [3], 77.8 µM (inactive); in assay [4], 36.4 µM (inactive); in assay [5] it was 91.4 µM (inactive); in [6] it was > 100 µM (inactive). Also, the GI50 is 94.6 µM (inactive) in [7]; 46.5 µM (inactive) in assay [8]; 38.2 µM in assay [9]; 67.6 µM (inactive) in [10]; 63 µM (inactive) in assay [11]; 35.2 µM (inactive) in assay [12]. Moreover, the GI50 in [13] was 54.1 µM (inactive); in assay [14] it was 27.7 µM (inactive); in [15], > 100 µM (inactive); in [16], > 100 µM (inactive); in assay [17], 60.8 µM (inactive); in assay [19] it was 90.2 µM (inactive).
`CCCCCC(=O)N[C@H](C(=O)N[C@H](C(=O)N(C)[C@@H](CC(C)C)C(=O)N1CCC[C@H]1C(=O)N1CCC[C@H]1C(=O)O[C@H](C(=O)N1C(=O)C=C(OC)[C@@H]1Cc1ccccc1)C(C)C)C(C)C)C(C)C` (Hexanoyl-VV[NMeL]PP-X26): the GI50 in [1] was > 100 µM (inactive); in [2], 47.9 µM (inactive); in assay [3], 51.5 µM (inactive); in assay [4], 19.5 µM (inactive); in assay [5], > 100 µM (inactive); in assay [6], 1.46 µM (inactive). Moreover, the GI50 in [7] is > 100 µM (inactive); in assay [8], > 100 µM (inactive); in [9], > 43.4 µM; in assay [10], > 74.3 µM (inactive); in assay [11] it was > 100 µM (inactive); in [12] it was > 74.3 µM (inactive). In addition, the GI50 in [13] is 25.9 µM (inactive); in assay [14] it was > 100 µM (inactive); in assay [15] it was > 100 µM (inactive); in [16], > 43.8 µM (inactive); in assay [17], 35.6 µM (inactive); in assay [19], > 100 µM (inactive).
`Cn1cc(C2NC(=O)c3ccccc3N2)c2ccccc21` (centres undefined): the GI50 in [1] was 0.998 µM (active); in [2] it was 0.0785 µM (active); in assay [3], 0.206 µM (active); in assay [4] it was 0.873 µM (active); in assay [5], 0.746 µM (active); in assay [6], 0.12 µM (active). Further, the GI50 in assay [7] is 0.643 µM (active); in [8], 1.06 µM (active); in assay [9], 0.191 µM; in assay [10] it was 0.0612 µM (active); in assay [11], 0.491 µM (active); in assay [12], 1.19 µM (inactive). In addition, the GI50 in assay [13] was 0.124 µM (active); in assay [14], 0.695 µM (active); in [15], 0.35 µM (active); in assay [16] it was 0.887 µM (active); in [17], 1.63 µM (inactive); in [18], 0.182 µM (active).

The record behind these values is ChEMBL document CHEMBL1201862, “PubChem BioAssay data set” (2004).
